Data: patent US20250213555A1, “SUBSTITUTED TETRAHYDROFURAN ANALOGS AS MODULATORS OF SODIUM CHANNELS” (VERTEX PHARMACEUTICALS INCORPORATED, priority 2021, published 2025)

Biological target: human Nav 1.8 (Homo sapiens, UniProt Q9Y5Y9)
Test: E-VIPR assay detecting and measuring Nav inhibition properties
Assay type: cell-based
Settings: HEK cells expressing a truncated form of human Nav 1.8; compound numbers without "*" (not marked as run in the presence of human serum); read-out: measured IC50 value in the E-VIPR Assay
How it was run: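 Nav inhibition was read by E-VIPR: cells were electrically stimulated while coumarin/oxonol FRET emissions were recorded. Cells were HEK expressing a truncated human Nav 1.8 and co-transduced with KIR2.1, and were assayed in 25% final human serum.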

Sequence of human Nav 1.8 (Q9Y5Y9 126-399 limits assumed): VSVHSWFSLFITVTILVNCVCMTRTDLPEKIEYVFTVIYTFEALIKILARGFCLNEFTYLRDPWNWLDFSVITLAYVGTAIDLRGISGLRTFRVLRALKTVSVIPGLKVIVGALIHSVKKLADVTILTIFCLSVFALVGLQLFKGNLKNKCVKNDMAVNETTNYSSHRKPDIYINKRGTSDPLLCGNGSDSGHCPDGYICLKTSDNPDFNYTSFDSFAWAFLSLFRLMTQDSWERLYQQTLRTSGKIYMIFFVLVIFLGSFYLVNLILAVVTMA
Sequence of human Nav 1.8 (Q9Y5Y9 660-890 limits assumed): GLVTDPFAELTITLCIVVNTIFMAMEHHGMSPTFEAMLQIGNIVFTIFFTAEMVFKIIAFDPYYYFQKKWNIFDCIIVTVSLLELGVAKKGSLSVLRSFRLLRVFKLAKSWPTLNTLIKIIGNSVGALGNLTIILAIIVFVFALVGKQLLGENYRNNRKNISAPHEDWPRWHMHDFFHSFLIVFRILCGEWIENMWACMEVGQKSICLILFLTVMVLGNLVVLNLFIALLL
Sequence of human Nav 1.8 (Q9Y5Y9 1148-1722 limits assumed): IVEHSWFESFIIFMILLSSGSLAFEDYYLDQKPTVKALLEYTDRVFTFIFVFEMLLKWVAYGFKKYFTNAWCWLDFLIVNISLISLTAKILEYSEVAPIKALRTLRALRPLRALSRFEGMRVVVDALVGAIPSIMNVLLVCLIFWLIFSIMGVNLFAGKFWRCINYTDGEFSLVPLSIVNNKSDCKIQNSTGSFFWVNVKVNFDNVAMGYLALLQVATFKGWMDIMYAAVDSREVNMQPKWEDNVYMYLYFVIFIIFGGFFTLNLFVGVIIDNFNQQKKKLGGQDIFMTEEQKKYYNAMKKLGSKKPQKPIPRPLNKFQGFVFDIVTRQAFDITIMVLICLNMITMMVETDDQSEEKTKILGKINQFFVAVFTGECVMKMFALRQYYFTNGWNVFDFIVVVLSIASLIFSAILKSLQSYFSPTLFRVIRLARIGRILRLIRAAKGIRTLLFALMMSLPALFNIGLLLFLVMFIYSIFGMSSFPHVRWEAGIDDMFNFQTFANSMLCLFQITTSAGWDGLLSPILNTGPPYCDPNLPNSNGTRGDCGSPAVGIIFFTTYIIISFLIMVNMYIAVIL

SMILES	IC50
C[C@H]1[C@@H](c2ccc(F)c(F)c2OCCc2nccn2C)[C@H](C(=O)Nc2ccnc(C(N)=O)c2)O[C@@]1(C)C(F)(F)F [Compound 87, 4-((2R,3S,4S,5R)-3-(3,4-difluoro-2-(2-(1-methyl-1H-imidazol-2-yl)ethoxy)phenyl)-4,5-dimethyl-5-(trifluoromethyl)tetrahydrofuran-2-carboxamido)picolinamide]	10 to 100 nM
C[C@H]1[C@@H](c2ccc(F)c(F)c2OCC(CO)CO)[C@H](C(=O)Nc2ccnc(C(N)=O)c2)O[C@@]1(C)C(F)(F)F [Compound 91, 4-((2R,3S,4S,5R)-3-(3,4-difluoro-2-(3-hydroxy-2-(hydroxymethyl)propoxy)phenyl)-4,5-dimethyl-5-(trifluoromethyl)tetrahydrofuran-2-carboxamido)picolinamide]	100 to 1000 nM
C[C@H]1[C@@H](c2ccc(F)c(F)c2OCC2(CO)COC2)[C@H](C(=O)Nc2ccnc(C(N)=O)c2)O[C@@]1(C)C(F)(F)F [Compound 94, 4-((2R,3S,4S,5R)-3-(3,4-difluoro-2-((3-(hydroxymethyl)oxetan-3-yl)methoxy)phenyl)-4,5-dimethyl-5-(trifluoromethyl)tetrahydrofuran-2-carboxamido)picolinamide]	100 to 1000 nM
CNC(=O)COc1c([C@H]2[C@H](C(=O)Nc3ccnc(C(N)=O)c3)O[C@@](C)(C(F)(F)F)[C@H]2C)ccc(F)c1F [Compound 96, 4-((2R,3S,4S,5R)-3-(3,4-difluoro-2-(2-(methylamino)-2-oxoethoxy)phenyl)-4,5-dimethyl-5-(trifluoromethyl)tetrahydrofuran-2-carboxamido)picolinamide]	10 to 100 nM
C[C@H]1[C@@H](c2ccc(F)c(F)c2OCC2(CO)CCC2)[C@H](C(=O)Nc2ccnc(C(N)=O)c2)O[C@@]1(C)C(F)(F)F [Compound 97, 4-((2R,3S,4S,5R)-3-(3,4-difluoro-2-((1-(hydroxymethyl)cyclobutyl)methoxy)phenyl)-4,5-dimethyl-5-(trifluoromethyl)tetrahydrofuran-2-carboxamido)picolinamide]	10 to 100 nM
CC1C(c2ccc(F)c(F)c2OCC2CCC2O)C(C(=O)Nc2ccnc(C(N)=O)c2)OC1(C)C(F)(F)F [Compound 98, rel-4-((2R*,3S*,4S*,5R*)-3-(3,4-difluoro-2-(((15,2S)-2-hydroxycyclobutyl)methoxy)phenyl)-4,5-dimethyl-5-(trifluoromethyl)tetrahydrofuran-2-carboxamido)picolinamide]	10 to 100 nM
C[C@H]1[C@@H](c2ccc(F)c(F)c2OCCC(C)(C)O)[C@H](C(=O)Nc2ccnc(C(N)=O)c2)O[C@@]1(C)C(F)(F)F [Compound 100, 4-((2R,3S,4S,5R)-3-(3,4-difluoro-2-(3-hydroxy-3-methylbutoxy)phenyl)-4,5-dimethyl-5-(trifluoromethyl)tetrahydrofuran-2-carboxamido)picolinamide]	10 to 100 nM
C[C@H]1[C@@H](c2ccc(F)c(F)c2OC2CN(C)C2)[C@H](C(=O)Nc2ccnc(C(N)=O)c2)O[C@@]1(C)C(F)(F)F [Compound 101, 4-((2R,3S,4S,5R)-3-(3,4-difluoro-2-((1-methylazetidin-3-yl)oxy)phenyl)-4,5-dimethyl-5-(trifluoromethyl)tetrahydrofuran-2-carboxamido) picolinamide]	10 to 100 nM
C[C@H]1[C@@H](c2ccc(F)c(F)c2OCC2CN(C)C2)[C@H](C(=O)Nc2ccnc(C(N)=O)c2)O[C@@]1(C)C(F)(F)F [Compound 104, 4-((2R,3S,4S,5R)-3-(3,4-difluoro-2-((1-methylazetidin-3-yl)methoxy)phenyl)-4,5-dimethyl-5-(trifluoromethyl)tetrahydrofuran-2-carboxamido)picolinamide]	10 to 100 nM
C[C@H]1[C@@H](c2ccc(F)c(F)c2OCC2(F)CN(C)C2)[C@H](C(=O)Nc2ccnc(C(N)=O)c2)O[C@@]1(C)C(F)(F)F [Compound 105, 4-((2R,3S,4S,5R)-3-(3,4-difluoro-2-((3-fluoro-1-methylazetidin-3-yl)methoxy)phenyl)-4,5-dimethyl-5-(trifluoromethyl)tetrahydrofuran-2-carboxamido)picolinamide]	10 to 100 nM
C[C@H]1[C@@H](c2ccc(F)c(F)c2OCC2(F)CNC2)[C@H](C(=O)Nc2ccnc(C(N)=O)c2)O[C@@]1(C)C(F)(F)F [Compound 106, 4-((2R,3S,4S,5R)-3-(3,4-difluoro-2-((3-fluoroazetidin-3-yl)methoxy)phenyl)-4,5-dimethyl-5-(trifluoromethyl)tetrahydrofuran-2-carboxamido)picolinamide]	100 to 1000 nM
C[C@H]1[C@@H](c2ccc(F)c(F)c2OCCN2CCCOCC2)[C@H](C(=O)Nc2ccnc(C(N)=O)c2)O[C@@]1(C)C(F)(F)F [Compound 108, 4-((2R,3S,4S,5R)-3-(2-(2-(1,4-oxazepan-4-yl)ethoxy)-3,4-difluorophenyl)-4,5-dimethyl-5-(trifluoromethyl)tetrahydrofuran-2-carboxamido)picolinamide]	10 to 100 nM
C[C@H]1[C@@H](c2ccc(F)c(F)c2OCCN2CC3CC(C2)O3)[C@H](C(=O)Nc2ccnc(C(N)=O)c2)O[C@@]1(C)C(F)(F)F [Compound 110, 4-((2R,3S,4S,5R)-3-(2-(2-(6-oxa-3-azabicyclo[3.1.1]heptan-3-yl)ethoxy)-3,4-difluorophenyl)-4,5-dimethyl-5-(trifluoromethyl)tetrahydrofuran-2-carboxamido)picolinamide]	< 10 nM
C[C@H]1[C@@H](c2ccc(F)c(F)c2OCCNCC(F)F)[C@H](C(=O)Nc2ccnc(C(N)=O)c2)O[C@@]1(C)C(F)(F)F [Compound 112, 4-((2R,3S,4S,5R)-3-(2-(2-((2,2-difluoroethyl)amino)ethoxy)-3,4-difluorophenyl)-4,5-dimethyl-5-(trifluoromethyl)tetrahydrofuran-2-carboxamido)picolinamide]	< 10 nM
C[C@H]1[C@@H](c2ccc(F)c(F)c2OCCN2C3CCC2COC3)[C@H](C(=O)Nc2ccnc(C(N)=O)c2)O[C@@]1(C)C(F)(F)F [Compound 113, 4-((2R,3S,4S,5R)-3-(2-(2-(3-oxa-8-azabicyclo[3.2.1]octan-8-yl)ethoxy)-3,4-difluorophenyl)-4,5-dimethyl-5-(trifluoromethyl)tetrahydrofuran-2-carboxamido)picolinamide]	10 to 100 nM
CNCCOc1c([C@H]2[C@H](C(=O)Nc3ccnc(C(N)=O)c3)O[C@@](C)(C(F)(F)F)[C@H]2C)ccc(F)c1F [Compound 114, 4-((2R,3S,4S,5R)-3-(3,4-difluoro-2-(2-(methylamino)ethoxy)phenyl)-4,5-dimethyl-5-(trifluoromethyl)tetrahydrofuran-2-carboxamido)picolinamide]	10 to 100 nM
CC(C)NCCOc1c([C@H]2[C@H](C(=O)Nc3ccnc(C(N)=O)c3)O[C@@](C)(C(F)(F)F)[C@H]2C)ccc(F)c1F [Compound 115, 4-((2R,3S,4S,5R)-3-(3,4-difluoro-2-(2-(isopropylamino)ethoxy)phenyl)-4,5-dimethyl-5-(trifluoromethyl)tetrahydrofuran-2-carboxamido)picolinamide]	100 to 1000 nM

Next, values leading:

IC50	SMILES
< 10 nM	C[C@H]1[C@@H](c2ccc(F)c(F)c2OCCc2cncn2C)[C@H](C(=O)Nc2ccnc(C(N)=O)c2)O[C@@]1(C)C(F)(F)F [Compound 86, 4-((2R,3S,4S,5R)-3-(3,4-difluoro-2-(2-(1-methyl-1H-imidazol-5-yl)ethoxy)phenyl)-4,5-dimethyl-5-(trifluoromethyl)tetrahydrofuran-2-carboxamido)picolinamide]
< 10 nM	C[C@H]1[C@@H](c2ccc(F)c(F)c2OCc2cn(C)cn2)[C@H](C(=O)Nc2ccnc(C(N)=O)c2)O[C@@]1(C)C(F)(F)F [Compound 88, 4-((2R,3S,4S,5R)-3-(3,4-difluoro-2-((1-methyl-1H-imidazol-4-yl)methoxy)phenyl)-4,5-dimethyl-5-(trifluoromethyl)tetrahydrofuran-2-carboxamido)picolinamide]
< 10 nM	C[C@H]1[C@@H](c2ccc(F)c(F)c2OCc2cncn2C)[C@H](C(=O)Nc2ccnc(C(N)=O)c2)O[C@@]1(C)C(F)(F)F [Compound 89, 4-((2R,3S,4S,5R)-3-(3,4-difluoro-2-((1-methyl-1H-imidazol-5-yl)methoxy)phenyl)-4,5-dimethyl-5-(trifluoromethyl)tetrahydrofuran-2-carboxamido)picolinamide]
< 10 nM	CC(CO)COc1c([C@H]2[C@H](C(=O)Nc3ccnc(C(N)=O)c3)O[C@@](C)(C(F)(F)F)[C@H]2C)ccc(F)c1F (stereo partly drawn) [Compound 90, 4-((2R,3S,4S,5R)-3-(3,4-difluoro-2-(3-hydroxy-2-methylpropoxy)phenyl)-4,5-dimethyl-5-(trifluoromethyl)tetrahydrofuran-2-carboxamido)picolinamide]
< 10 nM	C[C@H]1[C@@H](c2ccc(F)c(F)c2OCC2(CO)CC2)[C@H](C(=O)Nc2ccnc(C(N)=O)c2)O[C@@]1(C)C(F)(F)F [Compound 95, 4-((2R,3S,4S,5R)-3-(3,4-difluoro-2-((1-(hydroxymethyl)cyclopropyl)methoxy)phenyl)-4,5-dimethyl-5-(trifluoromethyl)tetrahydrofuran-2-carboxamido)picolinamide]
< 10 nM	C[C@@H]1CN(CCOc2c([C@H]3[C@H](C(=O)Nc4ccnc(C(N)=O)c4)O[C@@](C)(C(F)(F)F)[C@H]3C)ccc(F)c2F)CCO1 [Compound 109, 4-((2R,3S,4S,5R)-3-(3,4-difluoro-2-(2-((R)-2-methylmorpholino)ethoxy)phenyl)-4,5-dimethyl-5-(trifluoromethyl)tetrahydrofuran-2-carboxamido)picolinamide]
< 10 nM	C[C@H]1CN(CCOc2c([C@H]3[C@H](C(=O)Nc4ccnc(C(N)=O)c4)O[C@@](C)(C(F)(F)F)[C@H]3C)ccc(F)c2F)CCO1 [Compound 111, 4-((2R,3S,4S,5R)-3-(3,4-difluoro-2-(2-((S)-2-methylmorpholino)ethoxy)phenyl)-4,5-dimethyl-5-(trifluoromethyl)tetrahydrofuran-2-carboxamido)picolinamide]
